In patent US20030073737A1, “Tolerance induction” (priority 2001, published 2003):

Key:
donor heart graft = assay: Rat heterotopic heart transplantation, graft survival; format: in vivo; settings: Lewis/BN rats; i.v. or s.c., daily dose up to 1 mg/kg for 1-12 weeks, e.g. 4 weeks; daily palpation of beating donor heart
Text: 1. Rat Heterotopic Heart Transplantation
The strain combination used: Male Lewis (RT^1 haplotype) and BN (RT^1 haplotype). The animals are anaesthetised using inhalational isofluorane. […] The aorta is ligated and divided distal to the first branch and the brachiocephalic trunk is divided at the first bifurcation. The left pulmonary artery is ligated and divided and the right side divided but left open. All other vessels are dissected free, ligated and divided and the donor heart is removed into iced saline.
The recipient is prepared by dissection and cross-clamping of the infra-renal abdominal aorta and vena cava. The graft is implanted with end-to-side anastomoses, using 10/0 monofilament suture, between the donor brachiocephalic trunk and the recipient aorta and the donor right pulmonary artery to the recipient vena cava. The clamps are removed, the graft tethered retroabdominally, the abdominal contents washed with warm saline and the animal is closed and allowed to recover under a heating lamp. Graft survival is monitored by daily palpation of the beating donor heart through the abdominal wall. Rejection is considered to be complete when heart beat stops.

[1] = system: mixed lymphocyte reaction; settings: as described in WO 99/50388; cited from earlier work

Tautomycetin
graft survival (donor heart graft): Increases of graft survival are obtained beyond treatment time
inhibition of the mixed lymphocyte reaction [1]: inhibition of the mixed lymphocyte reaction
